ChEMBL document CHEMBL3885861, “Open TG-GATES”

Organism: Rattus norvegicus
Experiment: Open TG-GATES - Regimen: Daily Repeat
Format: toxicity, organism-based, Sprague-Dawley
Parameters: regimen Daily Repeat, gender Male, age 6 weeks
Settings: in vivo, po, route gavage; for Eos / Hb / Ht / Lym / MCH / MCHC / MCV / Mono / Neu / Plat / RBC / Ret / WBC / APTT / Bas / PT: tissue Blood; for KIDNEY_L / KIDNEY_R / KIDNEY_TOTAL: tissue Kidney; for LIVER: tissue Liver; for ALT / AST / BUN / CRE / Ca / DBIL / GLC / IP / K / LDH / Na / PL / RALB / TBIL / TC / TG / TP / gamma-GTP / ALP: tissue Plasma
[1] = 300 mg/kg, 72 h, dose level Middle, time 3 day
[2] = 300 mg/kg, […], dose level Middle, time 7 day
[3] = 300 mg/kg, […], dose level Middle, time 14 day
[4] = 300 mg/kg, […], dose level Middle, time 28 day
[5] = 1000 mg/kg, 72 h, dose level High, time 3 day
[6] = 1000 mg/kg, […], dose level High, time 7 day
[7] = 1000 mg/kg, […], dose level High, time 14 day
[8] = 1000 mg/kg, […], dose level High, time 28 day

SMILES: C[C@H](CS)C(=O)N1CCC[C@H]1C(=O)O [CAPTOPRIL]
- Eos [1]: 1.2%
- Hb [1]: 13.3 g/dL
- Ht [1]: 40.2%
- Lym [1]: 79.4%
- MCH [1]: 21.4 pg
- MCHC [1]: 33.1%
- MCV [1]: 64.5 fL
- Mono [1]: 4.2%
- Neu [1]: 15.2%
- Plat [1]: 111.4 x10_4/uL
- RBC [1]: 623.2 x10_4/ul
- Ret [1]: 7.7%
- WBC [1]: 92.7 x10_2/uL
- KIDNEY_L [1]: 1.1 g
- KIDNEY_R [1]: 1.1 g
- KIDNEY_TOTAL [1]: 2.2 g
- LIVER [1]: 12.3 g
- ALT [1]: 40.6 IU/L
- AST [1]: 61 IU/L
- BUN [1]: 17.8 mg/dL
- CRE [1]: 0.5 mg/dL
- Ca [1]: 11.5 mg/dL
- DBIL [1]: 0.022 mg/dL
- GLC [1]: 195.4 mg/dL
- IP [1]: 8.8 mg/dL
- K [1]: 5.1 meq/L
- LDH [1]: 89 IU/L
- Na [1]: 136 meq/L
- PL [1]: 143.4 mg/dL
- RALB [1]: 4.2 g/dL
- TBIL [1]: 0.4 mg/dL
- TC [1]: 76 mg/dL
- TG [1]: 73.8 mg/dL
- TP [1]: 6.1 g/dL
- gamma-GTP [1]: 0.8 IU/L
- TERMINAL_BW [2]: 259.5 g
- TERMINAL_BW [3]: 288.5 g
- TERMINAL_BW [4]: 322 g
- APTT [2]: 16.4 s
- Bas [2]: 0%
- Eos [2]: 1.2%
- Hb [2]: 13.3 g/dL
- Ht [2]: 39.7%
- Lym [2]: 85.2%
- MCH [2]: 21.2 pg
- MCHC [2]: 33.4%
- MCV [2]: 63.6 fL
- Mono [2]: 4.6%
- Neu [2]: 9.2%
- Plat [2]: 127.2 x10_4/uL
- RBC [2]: 625.8 x10_4/ul
- Ret [2]: 4.7%
- WBC [2]: 127.6 x10_2/uL
- APTT [3]: 16.6 s
- Bas [3]: 0%
- Eos [3]: 1%
- Hb [3]: 13 g/dL
- Ht [3]: 38.6%
- Lym [3]: 83.2%
- MCH [3]: 20.5 pg
- MCHC [3]: 33.7%
- MCV [3]: 60.7 fL
- Mono [3]: 4%
- Neu [3]: 11.4%
- PT [3]: 11.7 s
- Plat [3]: 128.4 x10_4/uL
- RBC [3]: 636.4 x10_4/ul
- Ret [3]: 4.4%
- WBC [3]: 183.2 x10_2/uL
- APTT [4]: 15.5 s
- Bas [4]: 0%
- Eos [4]: 1%
- Hb [4]: 14 g/dL
- Ht [4]: 41.6%
- Lym [4]: 82.2%
- MCH [4]: 19.3 pg
- MCHC [4]: 33.7%
- MCV [4]: 57.4 fL
- Mono [4]: 3.6%
- Neu [4]: 13.6%
- PT [4]: 11.9 s
- Plat [4]: 112.2 x10_4/uL
- RBC [4]: 724.6 x10_4/ul
- Ret [4]: 2.9%
- WBC [4]: 165.2 x10_2/uL
- KIDNEY_L [2]: 1.2 g
- KIDNEY_R [2]: 1.2 g
- KIDNEY_TOTAL [2]: 2.3 g
- KIDNEY_L [3]: 1.2 g
- KIDNEY_R [3]: 1.3 g
- KIDNEY_TOTAL [3]: 2.5 g
- KIDNEY_L [4]: 1.3 g
- KIDNEY_R [4]: 1.4 g
- KIDNEY_TOTAL [4]: 2.7 g
- LIVER [2]: 11.7 g
- LIVER [3]: 12.4 g
- LIVER [4]: 12.4 g
- ALT [2]: 32.8 IU/L
- AST [2]: 63.2 IU/L
- BUN [2]: 20.6 mg/dL
- CRE [2]: 0.6 mg/dL
- Ca [2]: 11 mg/dL
- DBIL [2]: 0.006 mg/dL
- GLC [2]: 192 mg/dL
- IP [2]: 8 mg/dL
- K [2]: 4.8 meq/L
- LDH [2]: 109.6 IU/L
- Na [2]: 138.2 meq/L
- PL [2]: 132 mg/dL
- RALB [2]: 3.8 g/dL
- TBIL [2]: 0.3 mg/dL
- TC [2]: 72.8 mg/dL
- TG [2]: 73.4 mg/dL
- TP [2]: 5.8 g/dL
- gamma-GTP [2]: 2.2 IU/L
- ALP [3]: 824.2 IU/L
- ALT [3]: 40.2 IU/L
- AST [3]: 66.6 IU/L
- BUN [3]: 24.4 mg/dL
- CRE [3]: 0.6 mg/dL
- DBIL [3]: 0.012 mg/dL
- GLC [3]: 203.6 mg/dL
- IP [3]: 7.8 mg/dL
- K [3]: 4.6 meq/L
- LDH [3]: 86.6 IU/L
- Na [3]: 135.2 meq/L
- PL [3]: 151 mg/dL
- RALB [3]: 3.8 g/dL
- TBIL [3]: 0.3 mg/dL
- TC [3]: 81.4 mg/dL
- TG [3]: 67 mg/dL
- TP [3]: 5.9 g/dL
- gamma-GTP [3]: 1.4 IU/L
- ALP [4]: 617.4 IU/L
- ALT [4]: 35.4 IU/L
- AST [4]: 65.8 IU/L
- BUN [4]: 30.8 mg/dL
- CRE [4]: 0.6 mg/dL
- DBIL [4]: 0.024 mg/dL
- GLC [4]: 191.2 mg/dL
- IP [4]: 7.4 mg/dL
- K [4]: 4.6 meq/L
- Na [4]: 136.8 meq/L
- PL [4]: 156.6 mg/dL
- RALB [4]: 4 g/dL
- TBIL [4]: 0.4 mg/dL
- TC [4]: 84.8 mg/dL
- TG [4]: 79 mg/dL
- TP [4]: 6.1 g/dL
- gamma-GTP [4]: 0.4 IU/L
- TERMINAL_BW [5]: 233.8 g
- APTT [5]: 16.1 s
- Bas [5]: 0%
- Eos [5]: 1.2%
- Hb [5]: 13.3 g/dL
- Ht [5]: 39.9%
- Lym [5]: 80.6%
- MCH [5]: 21.3 pg
- MCHC [5]: 33.2%
- MCV [5]: 64 fL
- Mono [5]: 5.2%
- Neu [5]: 13.4%
- PT [5]: 11.1 s
- Plat [5]: 122.3 x10_4/uL
- RBC [5]: 623.8 x10_4/ul
- Ret [5]: 6.2%
- KIDNEY_L [5]: 1.1 g
- KIDNEY_R [5]: 1.1 g
- KIDNEY_TOTAL [5]: 2.2 g
- LIVER [5]: 11 g
- ALP [5]: 971.8 IU/L
- ALT [5]: 40.6 IU/L
- AST [5]: 63 IU/L
- BUN [5]: 22.6 mg/dL
- CRE [5]: 0.5 mg/dL
- Ca [5]: 11.2 mg/dL
- DBIL [5]: 0.016 mg/dL
- GLC [5]: 193.4 mg/dL
- IP [5]: 8.2 mg/dL
- K [5]: 5 meq/L
- LDH [5]: 90.4 IU/L
- Na [5]: 135.2 meq/L
- PL [5]: 148.8 mg/dL
- RALB [5]: 3.9 g/dL
- TBIL [5]: 0.4 mg/dL
- TC [5]: 82.4 mg/dL
- TG [5]: 93.4 mg/dL
- TP [5]: 5.8 g/dL
- gamma-GTP [5]: 1.4 IU/L
- TERMINAL_BW [6]: 249.2 g
- TERMINAL_BW [7]: 310.3 g
- TERMINAL_BW [8]: 359.7 g
- APTT [6]: 16.3 s
- Bas [6]: 0%
- Eos [6]: 1.2%
- Hb [6]: 12.7 g/dL
- Ht [6]: 37.9%
- Lym [6]: 82.4%
- MCH [6]: 21.3 pg
- MCHC [6]: 33.5%
- MCV [6]: 63.6 fL
- Mono [6]: 4.6%
- Neu [6]: 11.8%
- Plat [6]: 123.8 x10_4/uL
- RBC [6]: 595.6 x10_4/ul
- Ret [6]: 4%
- WBC [6]: 141 x10_2/uL
- APTT [7]: 16.7 s
- Bas [7]: 0%
- Eos [7]: 1.2%
- Hb [7]: 12.7 g/dL
- Ht [7]: 37.6%
- Lym [7]: 81.8%
- MCH [7]: 20.6 pg
- MCHC [7]: 33.6%
- MCV [7]: 61.4 fL
- Mono [7]: 4.6%
- Neu [7]: 12.4%
- PT [7]: 11.5 s
- Plat [7]: 122.1 x10_4/uL
- RBC [7]: 614 x10_4/ul
- Ret [7]: 3.1%
- WBC [7]: 160.2 x10_2/uL
- APTT [8]: 16.4 s
- Bas [8]: 0%
- Eos [8]: 1.2%
- Hb [8]: 13.4 g/dL
- Ht [8]: 40.3%
- Lym [8]: 90.2%
- MCH [8]: 20 pg
- MCHC [8]: 33.2%
- MCV [8]: 60.1 fL
- Mono [8]: 2.8%
- Neu [8]: 6%
- PT [8]: 11.9 s
- Plat [8]: 96.2 x10_4/uL
- RBC [8]: 671.8 x10_4/ul
- Ret [8]: 3.7%
- WBC [8]: 236.5 x10_2/uL
- KIDNEY_L [6]: 1.2 g
- KIDNEY_R [6]: 1.3 g
- KIDNEY_TOTAL [6]: 2.5 g
- KIDNEY_L [7]: 1.3 g
- KIDNEY_R [7]: 1.4 g
- KIDNEY_TOTAL [7]: 2.7 g
- KIDNEY_L [8]: 1.5 g
- KIDNEY_R [8]: 1.6 g
- KIDNEY_TOTAL [8]: 3.1 g
- LIVER [7]: 13.5 g
- LIVER [8]: 15.1 g
- ALP [6]: 755.6 IU/L
- ALT [6]: 32.2 IU/L
- AST [6]: 53.8 IU/L
- BUN [6]: 46.4 mg/dL
- CRE [6]: 0.6 mg/dL
- DBIL [6]: 0.012 mg/dL
- GLC [6]: 192.8 mg/dL
- IP [6]: 7.7 mg/dL
- K [6]: 5.2 meq/L
- LDH [6]: 78.6 IU/L
- Na [6]: 136.8 meq/L
- PL [6]: 141.4 mg/dL
- RALB [6]: 3.5 g/dL
- TBIL [6]: 0.4 mg/dL
- TC [6]: 88.2 mg/dL
- TG [6]: 52.6 mg/dL
- TP [6]: 5.6 g/dL
- gamma-GTP [6]: 2 IU/L
- ALP [7]: 859.4 IU/L
- ALT [7]: 35.2 IU/L
- AST [7]: 58.8 IU/L
- BUN [7]: 38.8 mg/dL
- CRE [7]: 0.6 mg/dL
- DBIL [7]: 0.008 mg/dL
- GLC [7]: 191.8 mg/dL
- IP [7]: 7.8 mg/dL
- K [7]: 5 meq/L
- LDH [7]: 78.2 IU/L
- Na [7]: 133.8 meq/L
- PL [7]: 151.8 mg/dL
- RALB [7]: 3.7 g/dL
- TBIL [7]: 0.4 mg/dL
- TC [7]: 80.6 mg/dL
- TG [7]: 85.6 mg/dL
- TP [7]: 5.7 g/dL
- gamma-GTP [7]: 1.2 IU/L
- ALP [8]: 768 IU/L
- ALT [8]: 45 IU/L
- AST [8]: 71.5 IU/L
- BUN [8]: 32 mg/dL
- CRE [8]: 0.6 mg/dL
- DBIL [8]: 0.015 mg/dL
- GLC [8]: 207 mg/dL
- IP [8]: 7.7 mg/dL
- K [8]: 4.6 meq/L
- LDH [8]: 110.2 IU/L
- Na [8]: 135.8 meq/L
- PL [8]: 127.8 mg/dL
- RALB [8]: 3.6 g/dL
- TBIL [8]: 0.5 mg/dL
- TC [8]: 69 mg/dL
- TG [8]: 72.8 mg/dL
- TP [8]: 5.7 g/dL
- gamma-GTP [8]: 0.8 IU/L
